# pEC50, pIC50: −log10 of the molar value.
# What was measured:
# [1] = Antiviral activity against BVDV NADL infected in MDBK cells assessed as inhibition of virus induced cytopathogenicity after 3 to 4 days by MTT assay; format: functional, cell-based, Bovine viral diarrhea virus 1-NADL; conditions: Bovine viral diarrhea virus isolates and strains
# [2] = Inhibition of His tagged BVDV NS5B Cdelta24 RNA dependent RNA polymerase K263A mutant expressed in Escherichia coli Rosetta DE3 preincubated for 30 mins followed by addition of GTP measured after 120 mins by fluorescence analysis; parameters: species or system Bovine viral diarrhea virus 1
# [3] = Inhibition of His tagged BVDV NS5B Cdelta24 RNA dependent RNA polymerase expressed in Escherichia coli Rosetta DE3 preincubated for 30 mins followed by addition of GTP measured after 120 mins by fluorescence analysis; parameters: species or system Bovine viral diarrhea virus 1
# [4] = Cytotoxicity against mock-infected BHK21 cells assessed as reduction in cell viability after 72 hrs by MTT assay; format: cell-based, Mesocricetus auratus, BHK-21; conditions: hamster
# Coxsackievirus B2 = assay: Antiviral activity against CVB-2 infected in Vero 76 cells after 3 days by crystal violet staining based plaque reduction assay; format: functional, organism-based; conditions: Enterovirus B, Vero 76, 72 h
# [5] = Selectivity index, ratio of CC50 for MDBK cells to EC50 for […] NADL infected in MDBK cells
# [6] = system: Respiratory syncytial virus; assay: Antiviral activity against Respiratory syncytial virus A2 infected in Vero 76 cells after 5 days by crystal violet staining based plaque reduction assay; format: functional, organism-based; conditions: human respiratory syncytial virus, A2, Vero 76, 120 h
# Poliovirus 1 = assay: Antiviral activity against Human poliovirus 1 strain Sabin infected in Vero 76 cells after 2 days by crystal violet staining based plaque reduction assay; format: functional, organism-based; conditions: Enterovirus C, Vero 76, 48 h
# [7] = Cytotoxicity against mock-infected african green monkey Vero 76 cells assessed as reduction in cell viability after 48 to 96 hrs by MTT assay; format: cell-based; conditions: chlorocebus sabaeus, mock-infected Vero 76 cells
# [8] = system: Vesicular stomatitis virus; assay: Antiviral activity against Vesicular stomatitis virus Indiana infected in Vero 76 cells after 2 days by crystal violet staining based plaque reduction assay; format: functional, organism-based; conditions: Vero 76, 48 h
# Yellow fever virus = assay: Antiviral activity against Yellow fever virus 17D infected in BHK21 cells assessed as inhibition of virus induced cytopathogenicity after 3 to 4 days by MTT assay; format: functional, cell-based; conditions: BHK-21
# [9] = Cytotoxicity against mock-infected MDBK cells assessed as reduction in cell viability after 72 hrs by MTT assay; format: cell-based, Bos taurus; conditions: cattle
# [10] = system: Mammalian orthoreovirus 1; assay: Antiviral activity against Reovirus type-1 3651 infected in BHK21 cells assessed as inhibition of virus induced cytopathogenicity after 3 to 4 days by MTT assay; format: functional, cell-based; conditions: Mammalian orthoreovirus 1, 3651, BHK-21
# Vaccinia virus = assay: Antiviral activity against Vaccinia virus Elstree infected in Vero 76 cells after 3 days by crystal violet staining based plaque reduction assay; format: functional, organism-based; conditions: Orthopoxvirus vaccinia, Vero 76, 72 h
# [11] = system: Bovine viral diarrhea virus 1; assay: Antiviral activity against BVDV; format: functional, organism-based; conditions: Bovine viral diarrhea virus isolates and strains
# [12] = Inhibition of HCV RNA-dependent RNA polymerase; parameters: species or system Hepacivirus hominis
# [13] = Inhibition of BVDV RNA-dependent RNA polymerase; parameters: species or system Bovine viral diarrhea virus 1
SMILES,pEC50 [1],CC50 at 72 h [4] [µM],pEC50 (Coxsackievirus B2),Ratio CC50/EC50 [5],CC50 [7] [µM],CC50 at 72 h [9] [µM],pEC50 (Vaccinia virus),also measured
CC(=O)c1ccc(-c2nc3ccncc3[nH]2)cc1,5.15,–,–,–,–,–,–,pIC50 [2]: 4.82; pIC50 [3]: 4.96
COc1ccc(-c2nc3cc4cccnc4cc3[nH]2)c(OC)c1,5.47,45,4.92,>29.4,90,> 100,4.80,pEC50 [6]: < 4.35; pEC50 (Poliovirus 1): 4.80; pEC50 [8]: < 4.05; pEC50 (Yellow fever virus): < 4.35; pEC50 [10]: 4.42
NS(=O)(=O)c1ccc(-c2nc3cc4cccnc4c(Cl)c3[nH]2)cc1,< 4.00,> 100,< 4.00,–,> 100,> 100,< 4.00,pEC50 [6]: 4.74; pEC50 (Poliovirus 1): 4.68; pEC50 [8]: < 4.00; pEC50 (Yellow fever virus): < 4.00; pEC50 [10]: < 4.00
N#Cc1ccc(-c2nc3cc4cccnc4c(Cl)c3[nH]2)cc1,6.52,–,–,>333.3,–,> 100,–,pIC50 [2]: 6.12; pIC50 [3]: 6.32
Cn1c(=O)c(-c2cccs2)nc2c(Cl)c3ncccc3cc21,5.70,–,–,–,–,–,–,–
COc1nc2cc3cccnc3c(Cl)c2nc1C(C)C,< 4.00,–,–,–,–,–,–,–
Clc1c2ncccc2cc2nc(-c3ccoc3)[nH]c12,5.70,–,–,>50,–,> 100,–,–
NC(=O)c1ncn([C@@H]2O[C@H](CO)[C@@H](O)[C@H]2O)n1 [RIBAVIRIN],5.89,–,–,3.8,–,5,–,–
N#Cc1ccc(-c2nc3ccncc3[nH]2)cc1,5.05,–,–,–,–,–,–,–
COc1ccc(-c2nc3cc4cccnc4c(Cl)c3[nH]2)c(OC)c1,5.20,> 100,4.54,>15.9,> 100,> 100,4.89,pEC50 [6]: 5.00; pEC50 (Poliovirus 1): 4.39; pEC50 [8]: < 4.00; pEC50 (Yellow fever virus): 4.02; pEC50 [10]: < 4.00
Nc1c(/N=C/c2ccc([N+](=O)[O-])cc2)cc2cccnc2c1Cl,5.77,–,–,–,–,–,–,pIC50 [2]: 6.00; pIC50 [3]: 6.09
C[C@@]1(O)[C@H](O)[C@@H](CO)O[C@H]1n1cnc2c(=O)[nH]c(N)nc21 [2'-B-METHYL-GUANOSINE],–,> 10,–,>9.1,–,> 10,–,–
O=c1cnc2c(Cl)c3ncccc3cc2[nH]1,< 4.00,–,–,–,–,–,–,–
FC(F)(F)c1ccc(-c2nc3cc4cccnc4cc3[nH]2)cc1,5.15,> 100,< 4.00,>14.2,> 100,> 100,< 4.00,pEC50 [6]: < 4.00; pEC50 (Poliovirus 1): 4.17; pEC50 [8]: < 4.00; pEC50 (Yellow fever virus): < 4.00; pEC50 [10]: 4.28
CSc1ccc(-c2nc3cc4cccnc4c(Cl)c3[nH]2)cc1,5.21,> 100,< 4.00,>16.4,> 100,> 100,< 4.00,pEC50 [6]: < 4.00; pEC50 (Poliovirus 1): < 4.00; pEC50 [8]: < 4.00; pEC50 (Yellow fever virus): < 4.00; pEC50 [10]: 4.00
CC(=O)c1ccc(-c2nc3cccnc3[nH]2)cc1,< 4.00,–,–,–,–,–,–,–
CC(=O)c1ccc(-c2nc3cc4cccnc4c(Cl)c3[nH]2)cc1,5.24,> 100,< 4.00,>17.2,> 100,> 100,< 4.00,pEC50 [6]: < 4.00; pEC50 (Poliovirus 1): < 4.00; pEC50 [8]: < 4.00; pEC50 (Yellow fever virus): < 4.00; pEC50 [10]: 4.22
O=c1cnn([C@@H]2O[C@H](CO)[C@@H](O)[C@H]2O)c(=O)[nH]1 [6-AZAURIDINE],–,–,–,–,> 12.5,–,–,–

SMILES,pEC50 [1],CC50 at 72 h [4] [µM],pEC50 (Coxsackievirus B2),Ratio CC50/EC50 [5],CC50 [7] [µM],CC50 at 72 h [9] [µM],pEC50 (Vaccinia virus),also measured
N#Cc1ccc(-c2nc3cc4cccnc4cc3[nH]2)cc1,5.40,21,< 4.52,>25,30,> 100,< 4.00,pEC50 [6]: < 4.80; pEC50 (Poliovirus 1): < 4.52; pEC50 [8]: < 4.00; pEC50 (Yellow fever virus): < 4.68; pEC50 [10]: 5.15
O=[N+]([O-])c1c2cccnc2c(Cl)c2[nH]nnc12,–,–,–,–,–,–,–,pIC50 [2]: 3.85; pIC50 [3]: 5.05
Fc1ccc(-c2nc3cc4cccnc4cc3[nH]2)c(F)c1,5.22,> 100,4.46,>16.7,> 100,> 100,< 4.00,pEC50 [6]: < 4.24; pEC50 (Poliovirus 1): < 4.00; pEC50 [8]: < 4.00; pEC50 (Yellow fever virus): < 4.00; pEC50 [10]: 5.00
COc1nc2cc3cccnc3c(Cl)c2nc1-c1cccs1,5.89,–,–,–,–,–,–,pIC50 [2]: 6.02; pIC50 [3]: 6.19
C#C[C@@]1(O)[C@H](O)[C@@H](CO)O[C@H]1n1ccc(N)nc1=O [2'-ETHYNYL-D-CYTIDINE],–,–,4.57,–,> 100,–,–,–
COc1c(C)c2c(c(O)c1C/C=C(\C)CCC(=O)O)C(=O)OC2 [MYCOPHENOLIC ACID],–,–,–,–,> 12.5,–,–,–
CC(C)c1nc2c(Cl)c3ncccc3cc2[nH]c1=O,< 4.00,–,–,–,–,–,–,–
COc1ccc(-c2nc3cc(/C(C)=N/NC(N)=S)ccc3[nH]2)c(OC)c1,8.70,–,–,–,–,–,–,–
Nc1nc2c(ncn2COCCO)c(=O)[nH]1 [ACYCLOVIR],–,–,–,–,> 100,–,5.82,–
O=c1[nH]c2cc3cccnc3c(Cl)c2nc1-c1cccs1,5.30,–,–,–,–,–,–,–
N#Cc1ccc(/C=N/c2cc3cccnc3c(Cl)c2N)cc1,5.70,–,–,–,–,–,–,–
CCn1c(=O)c(-c2ccccc2)nc2c(Cl)c3ncccc3cc21,< 4.00,–,–,–,–,–,–,–
O=[N+]([O-])c1ccc(-c2nc3cc4cccnc4c(Cl)c3[nH]2)cc1,–,–,–,–,–,> 100,–,pEC50 [11]: 5.92; pIC50 [12]: 5.10; pIC50 [13]: 7.22
O=[N+]([O-])c1ccc(-c2nc3cc4cccnc4c(Cl)c3n2CC2CCCCC2)cc1,5.30,16,< 4.70,>6.6,20,33,< 4.70,pEC50 [6]: < 4.70; pEC50 (Poliovirus 1): < 4.70; pEC50 [8]: < 4.70; pEC50 (Yellow fever virus): < 4.89; pEC50 [10]: ≤ 4.80
COc1ccc(-c2nc3cc4cccnc4c(Cl)c3n2CC2CCCCC2)cc1,5.30,–,–,4,–,20,–,–
FC(F)(F)c1ccc(-c2nc3cc4cccnc4c(Cl)c3[nH]2)cc1,5.70,> 100,< 4.00,>50,> 100,> 100,< 4.00,pEC50 [6]: < 4.00; pEC50 (Poliovirus 1): < 4.00; pEC50 [8]: < 4.00; pEC50 (Yellow fever virus): < 4.25; pEC50 [10]: < 4.00
C[C@@]1(O)[C@H](O)[C@@H](CO)O[C@H]1n1ccc(N)nc1=O,–,> 100,–,–,–,–,–,–
